Measured values reported in the NIST ThermoML archive (doi:10.1016/j.tca.2006.01.020).

Experiment: molar heat capacity at constant pressure
Settings: 101.33 kPa, Crystal, Small (less than 1 g) adiabatic calorimetry

[Ba+2].[O-2].[O-2].[O-2].[Zr+4] [barium zirconium(IV) oxide]
Settings | molar heat capacity at constant pressure [J/K/mol]
1.659 K | 0.00346
1.662 K | 0.00357
1.664 K | 0.00348
1.666 K | 0.00351
1.671 K | 0.00353
1.675 K | 0.00351
1.677 K | 0.00363
1.683 K | 0.00349
1.689 K | 0.00342
1.699 K | 0.00335
1.722 K | 0.00326
1.735 K | 0.00341
1.744 K | 0.00345
1.763 K | 0.00333
2.098 K | 0.00292
2.107 K | 0.00345
2.124 K | 0.00373
2.15 K | 0.0036
2.163 K | 0.00346
2.173 K | 0.00343
2.185 K | 0.00389
2.198 K | 0.00355
2.209 K | 0.00288
2.216 K | 0.00344
2.228 K | 0.00346
2.261 K | 0.00391
2.281 K | 0.0035
2.325 K | 0.00371
2.372 K | 0.0038
2.389 K | 0.00365
2.42 K | 0.00384
2.515 K | 0.00414
2.651 K | 0.00484
2.824 K | 0.00516
2.831 K | 0.00564
2.919 K | 0.00559
2.952 K | 0.00633
3.106 K | 0.00618
3.116 K | 0.00718
3.242 K | 0.00714
3.366 K | 0.00794
3.538 K | 0.00865
3.656 K | 0.00903
3.873 K | 0.00964
3.987 K | 0.0104
4.096 K | 0.0108
4.199 K | 0.0112
4.473 K | 0.0129
4.617 K | 0.0156
4.702 K | 0.0156
4.777 K | 0.0158
4.851 K | 0.0176
4.929 K | 0.0183
5.008 K | 0.02
5.086 K | 0.019
5.165 K | 0.021
5.246 K | 0.0226
5.329 K | 0.0234
5.41 K | 0.0243
5.489 K | 0.0216
5.545 K | 0.0289
5.64 K | 0.0269
5.717 K | 0.0288
5.79 K | 0.0301
5.87 K | 0.0306
5.93 K | 0.0325
6.02 K | 0.0336
6.08 K | 0.0338
6.19 K | 0.0357
6.27 K | 0.0366
6.36 K | 0.0388
6.45 K | 0.0407
6.54 K | 0.0424
6.62 K | 0.044
6.72 K | 0.0458
6.8 K | 0.0494
6.9 K | 0.0501
6.98 K | 0.0511
7.08 K | 0.0539
7.16 K | 0.0547
7.26 K | 0.0547
7.36 K | 0.0593
7.47 K | 0.0629
7.56 K | 0.0638
7.67 K | 0.0662
7.77 K | 0.07
7.89 K | 0.0767
7.98 K | 0.076
8.1 K | 0.0841
8.2 K | 0.083
8.32 K | 0.091
8.43 K | 0.0913
8.55 K | 0.101
8.67 K | 0.102
8.8 K | 0.112
8.91 K | 0.111
9.05 K | 0.127
9.12 K | 0.121
9.26 K | 0.138
9.33 K | 0.13
9.47 K | 0.148
9.6 K | 0.144
9.75 K | 0.163
9.88 K | 0.159
10 K | 0.168
10.01 K | 0.17
10.18 K | 0.188
10.31 K | 0.186
10.47 K | 0.208
10.6 K | 0.205
10.76 K | 0.228
10.94 K | 0.235
11.09 K | 0.245
11.27 K | 0.27
11.45 K | 0.278
11.62 K | 0.29
11.8 K | 0.317
12 K | 0.341
12.15 K | 0.34
12.35 K | 0.385
12.54 K | 0.383
12.72 K | 0.416
12.92 K | 0.449
13.12 K | 0.466
13.32 K | 0.5
13.53 K | 0.54
13.73 K | 0.561
13.93 K | 0.599
14.13 K | 0.628
14.34 K | 0.692
14.54 K | 0.702
14.75 K | 0.772
14.97 K | 0.803
15.18 K | 0.858
15.39 K | 0.892
15.59 K | 0.951
15.81 K | 1.02
16.03 K | 1.06
16.24 K | 1.13
16.46 K | 1.2
16.68 K | 1.25
16.9 K | 1.32
17.12 K | 1.4
17.34 K | 1.46
17.56 K | 1.54
17.79 K | 1.63
18.03 K | 1.72
18.26 K | 1.77
18.47 K | 1.87
18.69 K | 1.97
18.92 K | 2.07
19.15 K | 2.15
19.38 K | 2.27
19.62 K | 2.37
19.86 K | 2.44
20 K | 2.564
20.07 K | 2.59
20.32 K | 2.69
20.56 K | 2.75
20.77 K | 2.91
21 K | 3.03
21.25 K | 3.1
21.47 K | 3.28
21.71 K | 3.37
21.95 K | 3.48
22.17 K | 3.66
22.41 K | 3.78
22.67 K | 3.87
22.9 K | 3.98
23.11 K | 4.17
23.34 K | 4.32
23.59 K | 4.41
23.83 K | 4.56
24.06 K | 4.76
24.31 K | 4.87
24.56 K | 4.97
24.78 K | 5.12
25 K | 5.34
25.24 K | 5.49
25.5 K | 5.6
25.74 K | 5.74
25.96 K | 5.93
26.19 K | 6.12
26.44 K | 6.29
26.7 K | 6.36
26.94 K | 6.51
27.15 K | 6.76
27.39 K | 6.91
27.68 K | 6.91
27.72 K | 7.04
28.07 K | 7.4
28.32 K | 7.57
28.59 K | 7.63
28.82 K | 7.79
29.03 K | 8.03
29.26 K | 8.25
30 K | 8.651
30.07 K | 8.73
30.34 K | 8.73
30.45 K | 8.93
31.03 K | 9.36
31.64 K | 9.8
32.28 K | 10.4
32.94 K | 10.9
33.63 K | 11.4
34.33 K | 11.9
35.05 K | 12.4
35.78 K | 13
36.53 K | 13.5
37.28 K | 14.1
38.03 K | 14.7
38.8 K | 15.3
39.58 K | 15.9
40 K | 16.19
40.37 K | 16.4
41.18 K | 17.1
42 K | 17.7
42.84 K | 18.3
43.69 K | 19
44.56 K | 19.6
45.45 K | 20.2
46.36 K | 21
47.29 K | 21.6
48.24 K | 22.3
49.21 K | 23
50 K | 23.59
50.25 K | 23.7
51.26 K | 24.4
52.27 K | 25.2
53.27 K | 25.9
54.27 K | 26.6
55.27 K | 27.3
56.27 K | 28.1
57.27 K | 28.8
58.26 K | 29.5
59.25 K | 30.2
60 K | 30.79
60.25 K | 31
61.24 K | 31.6
62.3 K | 32.5
63.25 K | 33.2
64.23 K | 33.8
65.21 K | 34.5
66.2 K | 35.2
67.19 K | 35.9
68.19 K | 36.2
69.19 K | 36.9
70 K | 37.33
71.18 K | 38.3
72.18 K | 38.8
73.19 K | 39.5
74.19 K | 40
75.18 K | 40.7
76.18 K | 41.3
77.18 K | 42
78.18 K | 42.5
79.18 K | 43.1
80 K | 43.22
80.18 K | 43.6
81.18 K | 44.3
82.18 K | 44.7
83.18 K | 45.1
84.17 K | 45.7
85.17 K | 46.3
86.17 K | 46.7
87.17 K | 47.2
87.74 K | 46.8
89.5 K | 48.5
90 K | 48.58
91.29 K | 49.3
93.12 K | 50.1
94.99 K | 51.3
96.9 K | 52.1
98.84 K | 52.7
100 K | 53.49
100.82 K | 53.7
102.81 K | 54.6
104.8 K | 55.6
106.79 K | 56.6
108.78 K | 57.5
110.77 K | 58.4
112.76 K | 59.4
114.75 K | 60.3
116.74 K | 61.2
118.72 K | 62
120 K | 62.3
120.69 K | 62.8
122.66 K | 63.7
124.65 K | 64.5
126.64 K | 65.3
128.63 K | 66.1
130.62 K | 66.8
132.27 K | 67.5
133.6 K | 68
134.94 K | 68.5
136.28 K | 69
137.64 K | 69.5
139.02 K | 70
140 K | 70.04
140.41 K | 70.1
141.81 K | 70.6
143.23 K | 71.1
144.66 K | 71.7
146.11 K | 72.2
147.57 K | 72.7
149.04 K | 73.2
150.53 K | 73.9
152.03 K | 74.3
153.55 K | 74.9
155.09 K | 75.3
156.64 K | 75.9
158.2 K | 76.3
159.79 K | 76.9
160 K | 76.91
161.38 K | 77.3
163 K | 77.9
164.63 K | 78.4
166.26 K | 78.9
167.93 K | 79.4
169.61 K | 79.9
171.3 K | 80.4
173.01 K | 81
174.74 K | 81.4
176.49 K | 82
178.25 K | 82.3
180 K | 82.99
180.03 K | 83
181.83 K | 83.5
183.65 K | 84.1
185.48 K | 84.7
187.34 K | 85.1
189.21 K | 85.5
191.1 K | 86.2
193 K | 86.7
194.93 K | 87
196.88 K | 87.9
198.84 K | 88
200 K | 88.29
200.83 K | 88.7
202.81 K | 89
204.8 K | 89.7
206.78 K | 90.5
208.76 K | 90.8
210.75 K | 91.3
212.73 K | 92.4
214.71 K | 91.7
216.7 K | 92.1
218.69 K | 92.5
220 K | 92.87
220.66 K | 93
222.65 K | 93.4
224.62 K | 94
226.6 K | 94.3
228.58 K | 94.9
230.56 K | 95.7
232.54 K | 95.8
234.52 K | 95.9
236.49 K | 96.5
238.47 K | 96.6
240 K | 96.81
240.44 K | 97.1
242.41 K | 97.6
244.39 K | 97.6
246.36 K | 98.4
248.33 K | 98.2
250.31 K | 98.9
252.27 K | 99.4
254.25 K | 99.7
256.22 K | 99.7
258.19 K | 99.8
260 K | 100.3
260.16 K | 100.3
262.12 K | 100.7
264.08 K | 100.7
266.04 K | 101.8
268.01 K | 102.2
269.99 K | 101.6
271.94 K | 102.6
273.9 K | 103
275.86 K | 103.2
277.83 K | 103.3
279.79 K | 103.8
280 K | 103.7
281.74 K | 104.6
283.71 K | 105.2
285.68 K | 105
287.63 K | 105
289.59 K | 105.2
291.54 K | 107
293.51 K | 106.2
295.49 K | 107.4
297.42 K | 106.6
298.15 K | 107
299.39 K | 106.6
300 K | 107.4
301.32 K | 107.9
